According to patent US20260001914A1, “MACROCYCLIC PEPTIDES TARGETING KRAS” (Merck Sharp & Dohme LLC, priority 2022, published 2026):
*1 amine or outer side, *2 acyl side, *3 side chain or, on linkers, in order; H or OH if unused. Where a SMILES comes first, the peptide text is derived from it. [ ]: non-standard residue; d: D form. X34 = O=C(C[C@@H](Cc1ccccc1)C(=O)[*:2])C12CC(CN[*:1])(C1)C2; cBu(1-CO,cis-3-CH2NH) = O=C([C@H]1C[C@@H](CN[*:1])C1)[*:2]; Ala(1-bicyclo(1.1.1)pentyl) = N[C@@H](CC12CC(C1)C2)C(=O)O; NMeNva(5-imidazol-1-yl) = CN[C@@H](CCCn1ccnc1)C(=O)O; X59 = O=C([C@H](Cc1ccc(CN2CCCC2)cc1)N[*:1])[*:2]; Ala(pyrimidin-5-yl) = N[C@@H](Cc1cncnc1)C(=O)O; NMePhe(3-Me) = CN[C@@H](Cc1cccc(C)c1)C(=O)O; X11 = CC(C)(F)CC[C@H](N[*:1])C(=O)[*:2]; X15 = O=C([C@H](Cc1cnccc1F)N[*:1])[*:2]; NMeAha = CN[C@@H](CCN=[N+]=[N-])C(=O)O; Nle(5,5-F2) = CC(F)(F)CC[C@H](N)C(=O)O; X21 = O=C([C@@H]1C[C@H]1CN[*:1])[*:2]; Phe(2-F) = N[C@@H](Cc1ccccc1F)C(=O)O; Abu(4,4-F2) = N[C@@H](CC(F)F)C(=O)O; NMe3Pal = CN[C@@H](Cc1cccnc1)C(=O)O; X1 = O=C(C12CC(CN[*:1])(C1)C2)[*:2]; Ala(cPr) = N[C@@H](CC1CC1)C(=O)O; NMeF = CN[C@@H](Cc1ccccc1)C(=O)O; PhLac = O=C(O)[C@@H](O)Cc1ccccc1; X9 = CCCC[C@H](O[*:1])C(=O)[*:2]; 3Pal = N[C@@H](Cc1cccnc1)C(=O)O; Ala(CN) = N#CC[C@H](N)C(=O)O; hLeu = CC(C)CC[C@H](N)C(=O)O; NMeS = CN[C@@H](CO)C(=O)O; NMeA = CN[C@@H](C)C(=O)O; Nle = CCCC[C@H](N)C(=O)O

target: KRAS-G12D protein (Homo sapiens, UniProt P01116, G12D); experiment: SOS-mediated nucleotide exchange assay (BODIPY-GDP / Tb-streptavidin TR-FRET); type: biochemical
Sequence (P01116 1-188 isoform P01116-2 G12D): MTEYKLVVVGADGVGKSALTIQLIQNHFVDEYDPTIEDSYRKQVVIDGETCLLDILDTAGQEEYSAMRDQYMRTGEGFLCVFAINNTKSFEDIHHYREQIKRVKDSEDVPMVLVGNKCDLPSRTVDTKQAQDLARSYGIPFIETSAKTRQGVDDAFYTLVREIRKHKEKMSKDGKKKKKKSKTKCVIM

SMILES | EC50
CCCC[C@@H]1NC(=O)[C@H](Cc2ccccc2F)NC(=O)[C@H](CCCC)OC(=O)[C@H](Cc2cccnc2)NC(=O)[C@H](CCN=[N+]=[N-])N(C)C(=O)[C@H](Cc2ccccc2)NC(=O)C23CC(CNC(=O)[C@H](Cc4cccnc4)N(C)C1=O)(C2)C3 [compound 250, cyclo(F-NMeDabN3-3Pal-NleLac-Phe2F-Nle-NMe3Pal-amBCP)] (cyclo(F[NMeAha][3Pal][X9][Phe(2-F)][Nle][NMe3Pal][X1])) | 3.88 µM
CCCC[C@@H]1NC(=O)[C@H](Cc2cccnc2)NC(=O)[C@H](CCCn2ccnc2)N(C)C(=O)[C@H](Cc2ccccc2)NC(=O)[C@@H]2C[C@H]2CNC(=O)[C@H](Cc2cccnc2)N(C)C(=O)[C@H](CCCC)NC(=O)[C@H](Cc2ccccc2F)NC1=O [compound 251, cyclo(F-NMeNvalmid-3Pal-Nle-Phe2F-Nle-NMe3Pal-tamcPr)] (cyclo(F[NMeNva(5-imidazol-1-yl)][3Pal][Nle][Phe(2-F)][Nle][NMe3Pal][X21])) | 0.272 µM
CCCC[C@@H]1NC(=O)[C@H](Cc2cccnc2)NC(=O)[C@H](CC#N)NC(=O)[C@H](Cc2ccccc2)OC(=O)C23CC(CNC(=O)[C@H](Cc4cccnc4)N(C)C(=O)[C@H](CCCC)NC(=O)[C@H](Cc4ccccc4F)NC1=O)(C2)C3 [compound 252, cyclo(FLac-AlaCN-3Pal-Nle-Phe2F-Nle-NMe3Pal-amBCP)] (cyclo([3Pal][Nle][Phe(2-F)][Nle][NMe3Pal][X1][PhLac][Ala(CN)])) | 3.75 µM
CCCC[C@@H]1NC(=O)[C@H](Cc2cccnc2)NC(=O)[C@H](COC)N(C)C(=O)[C@H](Cc2ccccc2)OC(=O)C23CC(CNC(=O)[C@H](Cc4cccnc4)N(C)C(=O)[C@H](CCCC)NC(=O)[C@H](Cc4ccccc4F)NC1=O)(C2)C3 [compound 255, cyclo(FLac-nMeSMe-3Pal-Nle-Phe2F-Nle-NMe3Pal-amBCP)] (cyclo([3Pal][Nle][Phe(2-F)][Nle][NMe3Pal][X1][PhLac][NMeS](Me))) | 6.41 µM
CCCC[C@@H]1NC(=O)[C@H](Cc2cccnc2)NC(=O)[C@H](CCCn2ccnc2)N(C)C(=O)[C@H](Cc2ccccc2)N(C)C(=O)[C@@H]2C[C@H]2CNC(=O)[C@H](Cc2cccnc2)N(C)C(=O)[C@H](CCCC)NC(=O)[C@H](Cc2ccccc2F)NC1=O [compound 256, cyclo(NMeF-NMeNvaImid-3Pal-Nle-Phe2F-Nle-NMe3Pal-tamcPr)] (cyclo([3Pal][Nle][Phe(2-F)][Nle][NMe3Pal][X21][NMeF][NMeNva(5-imidazol-1-yl)])) | 7.65 µM
CCCC[C@@H]1NC(=O)[C@H](Cc2ccc(CN3CCCC3)cc2)NC(=O)[C@H](CCCn2ccnc2)N(C)C(=O)[C@H](Cc2ccccc2)N(C)C(=O)C23CC(CNC(=O)[C@H](Cc4cccnc4)N(C)C(=O)[C@H](CCCC)NC(=O)[C@H](Cc4ccccc4F)NC1=O)(C2)C3 [compound 259, cyclo(NMeF-NMeNvalmid-Phe4cPyrr-Nle-Phe2F-Nle-NMe3Pal-amBCP)] (cyclo([NMe3Pal][X1][NMeF][NMeNva(5-imidazol-1-yl)][X59][Nle][Phe(2-F)][Nle])) | 3.22 µM
CC(C)CC[C@@H]1NC(=O)[C@H](Cc2ccccc2F)NC(=O)[C@H](CC2CC2)NC(=O)[C@H](Cc2cncnc2)NC(=O)[C@H](C)N(C)C(=O)[C@H](Cc2ccccc2)OC(=O)C23CC(CNC(=O)[C@H](Cc4ccccc4)N(C)C1=O)(C2)C3 [compound 260, cyclo(FLac-NMeA-PyrimAla-cPrA-Phe2F-hL-NMeF-amBCP)] (cyclo([Ala(cPr)][Phe(2-F)][hLeu][NMeF][X1][PhLac][NMeA][Ala(pyrimidin-5-yl)])) | 0.00195 µM
CCCC[C@@H]1NC(=O)[C@H](Cc2ccc(CN3CCCC3)cc2)NC(=O)[C@H](CCCn2ccnc2)N(C)C(=O)[C@H](Cc2ccccc2)NC(=O)C23CC(CNC(=O)[C@H](Cc4cccnc4)N(C)C(=O)[C@H](CCCC)NC(=O)[C@H](Cc4ccccc4F)NC1=O)(C2)C3 [compound 263, cyclo(F-NMeNvaImid-Phe4cPyrr-Nle-Phe2F-Nle-NMe3Pal-amBCP)] (cyclo(F[NMeNva(5-imidazol-1-yl)][X59][Nle][Phe(2-F)][Nle][NMe3Pal][X1])) | 0.0421 µM
CCCC[C@@H]1NC(=O)[C@H](Cc2cccnc2)NC(=O)[C@H](CCCn2ccnc2)N(C)C(=O)[C@H](Cc2ccccc2)N(C)C(=O)C23CC(CNC(=O)[C@H](Cc4cccnc4)N(C)C(=O)[C@H](CCCC)NC(=O)[C@H](Cc4ccccc4F)NC1=O)(C2)C3 [compound 264, cyclo(NMeF-NMeNvalmid-3Pal-Nle-Phe2F-Nle-NMe3Pal-amBCP)] (cyclo([3Pal][Nle][Phe(2-F)][Nle][NMe3Pal][X1][NMeF][NMeNva(5-imidazol-1-yl)])) | 4.03 µM
CCCC[C@@H]1NC(=O)[C@H](Cc2cccnc2)NC(=O)[C@H](CCCn2ccnc2)N(C)C(=O)[C@H](Cc2ccccc2)NC(=O)C23CC(CNC(=O)[C@H](Cc4cccnc4)N(C)C(=O)[C@H](CCCC)NC(=O)[C@H](Cc4ccccc4F)NC1=O)(C2)C3 [compound 265, cyclo(F-NMeNvalmid~3Pal-Nle-Phe2F-Nlc-NMe3Pal-amBCP)] (cyclo(F[NMeNva(5-imidazol-1-yl)][3Pal][Nle][Phe(2-F)][Nle][NMe3Pal][X1])) | 0.0909 µM
CCCC[C@@H]1NC(=O)[C@H](Cc2ccc(CN3CCCC3)cc2)NC(=O)[C@H](CCCn2ccnc2)N(C)C(=O)[C@H](Cc2ccccc2)NC(=O)[C@H]2C[C@@H](CNC(=O)[C@H](Cc3cccnc3)N(C)C(=O)[C@H](CCCC)NC(=O)[C@H](Cc3ccccc3F)NC1=O)C2 [compound 266, cyclo(F-NMeNvalmid-Phe4cPyrr-Nle-Phe2F-Nle-NMe3Pal-c3amCb1c)] (cyclo(F[NMeNva(5-imidazol-1-yl)][X59][Nle][Phe(2-F)][Nle][NMe3Pal][cBu(1-CO,cis-3-CH2NH)])) | 0.215 µM
C[C@H]1C(=O)N[C@@H](Cc2cncnc2)C(=O)N[C@@H](CC2CC2)C(=O)N[C@@H](Cc2ccccc2F)C(=O)N[C@@H](CC2CC2)C(=O)N(C)[C@@H](Cc2ccccc2)C(=O)NCC23CC(C2)(C3)C(=O)O[C@@H](Cc2ccccc2)C(=O)N1C [compound 267, cyclo(FLac-NMeA-PyrimAla-cPrA-Phe2F-cPrA-NMeF-amBCP)] (cyclo([Ala(cPr)][NMeF][X1][PhLac][NMeA][Ala(pyrimidin-5-yl)][Ala(cPr)][Phe(2-F)])) | 0.471 µM
C[C@H]1C(=O)N[C@@H](Cc2cncnc2)C(=O)N[C@@H](CC2CC2)C(=O)N[C@@H](Cc2ccccc2F)C(=O)N[C@@H](CC(F)F)C(=O)N(C)[C@@H](Cc2ccccc2)C(=O)NCC23CC(C2)(C3)C(=O)O[C@@H](Cc2ccccc2)C(=O)N1C [compound 271, cyclo(FLac-NMeA-PyrimAla-cPrA-Phe2F-AbuF2-NMeF-amBCP)] (cyclo([Ala(cPr)][Phe(2-F)][Abu(4,4-F2)][NMeF][X1][PhLac][NMeA][Ala(pyrimidin-5-yl)])) | 0.73 µM
CC(C)CC[C@@H]1NC(=O)[C@H](Cc2ccccc2F)NC(=O)[C@H](CC23CC(C2)C3)NC(=O)[C@H](Cc2cncnc2)NC(=O)[C@H](C)N(C)C(=O)[C@H](Cc2ccccc2)OC(=O)C23CC(CNC(=O)[C@H](Cc4ccccc4)N(C)C1=O)(C2)C3 [compound 272, cyclo(FLac-NMeA-PyrimAla-AlaPent-Phe2F-hL-NMeF-amBCP)] (cyclo([NMeA][Ala(pyrimidin-5-yl)][Ala(1-bicyclo(1.1.1)pentyl)][Phe(2-F)][hLeu][NMeF][X1][PhLac])) | 0.477 µM
C[C@H]1C(=O)N[C@@H](Cc2cncnc2)C(=O)N[C@@H](CC2CC2)C(=O)N[C@@H](Cc2ccccc2F)C(=O)N[C@@H](CCC(C)(C)F)C(=O)N(C)[C@@H](Cc2ccccc2)C(=O)NCC23CC(C2)(C3)C(=O)C[C@@H](Cc2ccccc2)C(=O)N1C [compound 273, cyclo(CPhe-NMeA-PyrimAla-cPrA-Phe2F-hL3F-NMeF-amBCP)] (cyclo([Ala(cPr)][Phe(2-F)][X11][NMeF][X34][NMeA][Ala(pyrimidin-5-yl)])) | 0.001 µM
Cc1cccc(C[C@H]2C(=O)NCC34CC(C3)(C4)C(=O)O[C@@H](Cc3ccccc3)C(=O)N(C)[C@@H](C)C(=O)N[C@@H](Cc3cncnc3)C(=O)N[C@@H](CC3CC3)C(=O)N[C@@H](Cc3ccccc3F)C(=O)N[C@@H](CCC(C)(C)F)C(=O)N2C)c1 [compound 274, cyclo(FLac-NMeA-PyrimAla-cPrA-Phe2F-hL3F-NMePhe3Me-amBCP)] (cyclo([Ala(cPr)][Phe(2-F)][X11][NMePhe(3-Me)][X1][PhLac][NMeA][Ala(pyrimidin-5-yl)])) | 0.001 µM
Cc1cccc(C[C@H]2C(=O)NCC34CC(C3)(C4)C(=O)O[C@@H](Cc3ccccc3)C(=O)N(C)[C@@H](C)C(=O)N[C@@H](Cc3cncnc3)C(=O)N[C@@H](CC3CC3)C(=O)N[C@@H](Cc3ccccc3F)C(=O)N[C@@H](CCC(C)(F)F)C(=O)N2C)c1 [compound 275, cyclo(FLac-NMeA-PyrimAla-cPrA-Phe2F-Nle3F2-NMePhe3Me-amBCP)] (cyclo([Ala(cPr)][Phe(2-F)][Nle(5,5-F2)][NMePhe(3-Me)][X1][PhLac][NMeA][Ala(pyrimidin-5-yl)])) | 0.001 µM
C[C@H]1C(=O)N[C@@H](Cc2cncnc2)C(=O)N[C@@H](CC2CC2)C(=O)N[C@@H](Cc2ccccc2F)C(=O)N[C@@H](CCC(C)(F)F)C(=O)N(C)[C@@H](Cc2ccccc2)C(=O)NCC23CC(C2)(C3)C(=O)O[C@@H](Cc2ccccc2)C(=O)N1C [compound 276, cyclo(FLac-NMeA-PyrimAla-cPrA-Phe2F-Nle3F2-NMeF-amBCP)] (cyclo([Ala(cPr)][Phe(2-F)][Nle(5,5-F2)][NMeF][X1][PhLac][NMeA][Ala(pyrimidin-5-yl)])) | 0.001 µM
C[C@H]1C(=O)N[C@@H](Cc2cncnc2)C(=O)N[C@@H](CC2CC2)C(=O)N[C@@H](Cc2ccccc2F)C(=O)N[C@@H](CCC(C)(C)F)C(=O)N(C)[C@@H](Cc2ccccc2)C(=O)NCC23CC(C2)(C3)C(=O)O[C@@H](Cc2ccccc2)C(=O)N1C [compound 277, cyclo(FLac-NMeA-PyrimAla-cPrA-Phe2F-hL3F-NMeF-amBCP)] (cyclo([Ala(cPr)][Phe(2-F)][X11][NMeF][X1][PhLac][NMeA][Ala(pyrimidin-5-yl)])) | 0.002 µM
Cc1cccc(C[C@H]2C(=O)NCC34CC(C3)(C4)C(=O)O[C@@H](Cc3ccccc3)C(=O)N(C)[C@@H](C)C(=O)N[C@@H](Cc3cncnc3)C(=O)N[C@@H](CC3CC3)C(=O)N[C@@H](Cc3cnccc3F)C(=O)N[C@@H](CCC(C)C)C(=O)N2C)c1 [compound 278, cyclo(FLac-NMeA-PyrimAla-cPrA-3Pal6F-hL-NMePhe3Me-amBCP)] (cyclo([Ala(cPr)][X15][hLeu][NMePhe(3-Me)][X1][PhLac][NMeA][Ala(pyrimidin-5-yl)])) | 0.002 µM
